According to patent US20240317777A1, “NOVEL MACROCYCLIC AMINOPYRAZOLE COMPOUNDS AS CDK2 INHIBITORS” (Accutar Biotechnology Inc., priority 2023, published 2024):
Where two headings read alike, the source gives them in different places.

How the values were obtained:
[1] = tested on: CCNE1-amplified OVCAR3 cells; assay: Cell growth inhibition of CCNE1-amplified OVCAR3 cells (CellTiter-Glo); assay type: cell-based; conditions: Homo sapiens, OVCAR-3, 144 h, 6 days
Outline: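 Growth read-out was CellTiter-Glo luminescence, taken after 10 min at room temperature at the end of a 6-day compound exposure at 37 °C. Compounds were diluted from DMSO stocks across various concentrations.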

CDK1-CYCLIN B = CDK1-CYCLIN B (Homo sapiens, UniProt P06493); assay: CDK protein kinase inhibition by ADP-Glo assay, CDK1-CYCLIN B; assay type: biochemical; conditions: ADP-Glo, 1000 μM ATP, read-out: CDK1-CYCLINB, IC50
Chain of CDK1-CYCLIN B (P06493 whole entry): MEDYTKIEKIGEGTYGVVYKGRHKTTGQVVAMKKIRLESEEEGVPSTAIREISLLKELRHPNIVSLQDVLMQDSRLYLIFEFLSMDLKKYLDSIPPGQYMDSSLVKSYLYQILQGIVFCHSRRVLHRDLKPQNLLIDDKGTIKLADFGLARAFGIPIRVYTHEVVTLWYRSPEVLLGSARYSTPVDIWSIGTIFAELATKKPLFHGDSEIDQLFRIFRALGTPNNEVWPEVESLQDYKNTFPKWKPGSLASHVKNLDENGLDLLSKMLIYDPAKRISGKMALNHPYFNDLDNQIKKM
Chain of CDK1-CYCLIN B (P14635 whole entry partner): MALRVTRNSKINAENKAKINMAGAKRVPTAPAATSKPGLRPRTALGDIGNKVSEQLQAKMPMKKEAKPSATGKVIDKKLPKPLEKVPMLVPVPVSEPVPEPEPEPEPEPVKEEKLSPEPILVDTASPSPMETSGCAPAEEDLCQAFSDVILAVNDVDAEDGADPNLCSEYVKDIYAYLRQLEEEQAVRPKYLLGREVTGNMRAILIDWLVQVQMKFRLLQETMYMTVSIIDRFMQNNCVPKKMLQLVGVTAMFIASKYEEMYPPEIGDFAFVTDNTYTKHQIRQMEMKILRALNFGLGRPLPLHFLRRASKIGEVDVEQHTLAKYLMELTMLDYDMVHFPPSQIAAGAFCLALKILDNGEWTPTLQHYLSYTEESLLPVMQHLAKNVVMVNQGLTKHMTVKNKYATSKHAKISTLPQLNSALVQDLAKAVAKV
Outline: (§1)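 Human CDK/cyclin complexes phosphorylated peptide substrates at 22° C in 100 mM HEPES pH 7.5 with 5 mM MgCl2, 1 mM DTT, 0.1% BSA, 0.01% Triton X-100 and 1000 μM ATP (1% DMSO). ADP formed was detected by ADP-Glo luminescence.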

CDK4-CYCLIN D1 = CDK4-CYCLIN D1 (Homo sapiens, UniProt P11802); assay: CDK protein kinase inhibition by ADP-Glo assay, CDK4-CYCLIN D1; assay type: biochemical; conditions: ADP-Glo, 1000 μM ATP, read-out: CDK4-CYCLIND1, IC50
Chain of CDK4-CYCLIN D1 (P11802 whole entry): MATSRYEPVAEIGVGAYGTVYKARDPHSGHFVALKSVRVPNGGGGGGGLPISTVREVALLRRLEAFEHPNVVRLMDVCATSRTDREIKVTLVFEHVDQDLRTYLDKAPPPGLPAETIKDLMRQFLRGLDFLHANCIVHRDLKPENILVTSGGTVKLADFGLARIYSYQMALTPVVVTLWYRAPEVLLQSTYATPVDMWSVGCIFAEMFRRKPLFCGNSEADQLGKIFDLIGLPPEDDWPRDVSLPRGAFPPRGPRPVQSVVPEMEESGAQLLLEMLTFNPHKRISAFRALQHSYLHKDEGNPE
Chain of CDK4-CYCLIN D1 (P24385 whole entry partner): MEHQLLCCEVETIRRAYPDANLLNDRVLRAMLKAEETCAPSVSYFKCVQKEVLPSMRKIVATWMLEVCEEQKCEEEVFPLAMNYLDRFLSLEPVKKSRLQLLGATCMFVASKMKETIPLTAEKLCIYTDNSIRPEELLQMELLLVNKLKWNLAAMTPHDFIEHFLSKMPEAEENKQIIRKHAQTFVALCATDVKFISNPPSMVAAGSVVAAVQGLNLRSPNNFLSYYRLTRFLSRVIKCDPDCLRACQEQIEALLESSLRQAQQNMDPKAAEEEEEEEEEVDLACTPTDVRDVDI
Outline: as §1

CDK9-CYCLIN T1 = CDK9-CYCLIN T1 (Homo sapiens, UniProt P50750); assay: CDK protein kinase inhibition by ADP-Glo assay, CDK9-CYCLIN T1; assay type: biochemical; conditions: ADP-Glo, 1000 μM ATP, read-out: CDK9-CYCLINT1, IC50
Chain of CDK9-CYCLIN T1 (P50750 whole entry): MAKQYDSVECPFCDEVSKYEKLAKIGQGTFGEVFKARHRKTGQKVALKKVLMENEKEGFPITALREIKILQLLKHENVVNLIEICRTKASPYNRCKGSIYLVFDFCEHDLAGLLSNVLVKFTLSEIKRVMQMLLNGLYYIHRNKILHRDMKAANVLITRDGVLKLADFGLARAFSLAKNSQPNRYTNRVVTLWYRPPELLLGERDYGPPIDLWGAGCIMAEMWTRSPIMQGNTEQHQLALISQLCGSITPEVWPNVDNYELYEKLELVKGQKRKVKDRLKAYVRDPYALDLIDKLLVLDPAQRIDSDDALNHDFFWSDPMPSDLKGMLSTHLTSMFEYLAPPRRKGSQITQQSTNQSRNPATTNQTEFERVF
Chain of CDK9-CYCLIN T1 (O60563 whole entry partner): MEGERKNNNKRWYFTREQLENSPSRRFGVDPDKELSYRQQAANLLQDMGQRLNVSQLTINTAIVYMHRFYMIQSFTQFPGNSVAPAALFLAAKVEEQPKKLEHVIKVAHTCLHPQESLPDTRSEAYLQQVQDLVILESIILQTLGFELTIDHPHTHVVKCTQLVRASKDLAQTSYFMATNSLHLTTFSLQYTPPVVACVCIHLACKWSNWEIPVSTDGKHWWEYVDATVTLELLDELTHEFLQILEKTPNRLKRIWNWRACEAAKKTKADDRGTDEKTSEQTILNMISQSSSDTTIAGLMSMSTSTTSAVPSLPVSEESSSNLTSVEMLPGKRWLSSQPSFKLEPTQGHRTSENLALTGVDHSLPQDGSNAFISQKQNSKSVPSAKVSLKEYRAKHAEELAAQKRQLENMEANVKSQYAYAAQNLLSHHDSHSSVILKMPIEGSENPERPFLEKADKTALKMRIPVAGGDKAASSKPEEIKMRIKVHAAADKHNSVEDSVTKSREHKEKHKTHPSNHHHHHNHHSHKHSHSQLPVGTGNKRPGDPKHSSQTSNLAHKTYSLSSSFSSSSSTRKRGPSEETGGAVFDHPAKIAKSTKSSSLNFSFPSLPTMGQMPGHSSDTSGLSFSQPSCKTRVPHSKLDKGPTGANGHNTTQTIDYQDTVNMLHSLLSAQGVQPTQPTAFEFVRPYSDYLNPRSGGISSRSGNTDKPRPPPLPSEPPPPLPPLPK
Outline: as §1

CCNE1-normal SKOV3 cells = assay: Cell growth inhibition of CCNE1-normal SKOV3 cells (CellTiter-Glo); assay type: cell-based; conditions: Homo sapiens, SK-OV-3, 144 h, 6 days
Outline: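 Growth was measured by CellTiter-Glo luminescence after 6 days' compound exposure at 37 °C. Cells were plated one day before dosing at 1000 per well in medium with 10% FBS, and compounds were diluted from DMSO stocks.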

CDK2-CYCLIN E1 = CDK2-CYCLIN E1 (Homo sapiens, UniProt P24941); assay: CDK protein kinase inhibition by ADP-Glo assay, CDK2-CYCLIN E1; assay type: biochemical; conditions: ADP-Glo, 1000 μM ATP, read-out: CDK2-CYCLINE, IC50
Outline: as §1

CDK6-CYCLIN D3 = CDK6-CYCLIN D3 (Homo sapiens, UniProt Q00534); assay: CDK protein kinase inhibition by ADP-Glo assay, CDK6-CYCLIN D3; assay type: biochemical; conditions: ADP-Glo, 1000 μM ATP, read-out: CDK6-CYCLIND3, IC50
Chain of CDK6-CYCLIN D3 (Q00534 whole entry): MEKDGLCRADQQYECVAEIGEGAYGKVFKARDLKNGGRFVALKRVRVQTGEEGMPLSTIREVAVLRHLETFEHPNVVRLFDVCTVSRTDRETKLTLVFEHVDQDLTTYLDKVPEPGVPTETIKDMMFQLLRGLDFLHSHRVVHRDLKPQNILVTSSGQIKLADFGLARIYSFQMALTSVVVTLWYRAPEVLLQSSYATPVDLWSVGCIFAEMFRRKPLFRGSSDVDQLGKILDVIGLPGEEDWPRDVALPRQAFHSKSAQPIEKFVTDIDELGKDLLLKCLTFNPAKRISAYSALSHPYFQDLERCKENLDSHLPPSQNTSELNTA
Chain of CDK6-CYCLIN D3 (P30281 whole entry partner): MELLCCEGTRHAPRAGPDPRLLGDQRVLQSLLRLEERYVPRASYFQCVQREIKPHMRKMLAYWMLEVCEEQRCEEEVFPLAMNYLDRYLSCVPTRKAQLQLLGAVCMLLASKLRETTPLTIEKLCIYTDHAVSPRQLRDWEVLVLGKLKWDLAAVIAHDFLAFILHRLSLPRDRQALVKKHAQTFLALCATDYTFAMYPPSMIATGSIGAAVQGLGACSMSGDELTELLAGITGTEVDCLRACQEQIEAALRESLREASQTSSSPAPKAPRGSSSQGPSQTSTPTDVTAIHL
Outline: as §1

[2] = tested on: Phospho-Rb (Ser807/811) in OVCAR3 cells; assay: Phospho-Rb expression inhibition in OVCAR3 cells quantified by In Cell Western; assay type: cell-based; conditions: Homo sapiens, OVCAR-3, 24 hours, read-out: OVCAR-3 pRb IC50
Outline: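 In-cell western: after 24 h compound exposure at 37° C, fixed OVCAR3 cells co-stained for pRb Ser807/811 (800 nm channel) and total Rb (680 nm channel), imaged by LI-COR Odyssey.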

Structure (SMILES) | IC50 [1] [nM] | IC50 (CCNE1-normal SKOV3 cells) [nM] | IC50 [2] [nM] | IC50 (CDK1-CYCLIN B; Table 9) [nM] | IC50 (CDK4-CYCLIN D1; Table 9) [nM] | IC50 (CDK9-CYCLIN T1; Table 9) [nM] | IC50 (CDK2-CYCLIN E1; Table 9) [nM] | IC50 (CDK6-CYCLIN D3; Table 9) [nM] | other results
C[C@H]1CCCNC(=O)O[C@@H]2CC[C@@H](C2)c2cc([nH]n2)Nc2ccnc(c2)O1 [compound 12] | 10 to 50 | 250 to 1250 | 2 to 10 | – | – | – | – | – | IC50 (CDK1-CYCLIN B; Table 11): 10 to 50 nM; IC50 (CDK4-CYCLIN D1; Table 11): 100 to 500 nM; IC50 (CDK9-CYCLIN T1; Table 11): 100 to 500 nM; IC50 (CDK2-CYCLIN E1; Table 11): ≤ 10 nM; IC50 (CDK6-CYCLIN D3; Table 11): 100 to 500 nM
O=C1NC23CC(CCc4cc(ccn4)Nc4cc([nH]n4)[C@H]4CC[C@H](C4)O1)(C2)C3 [compound 21] | 2 to 10 | 250 to 1250 | 2 to 10 | > 500 | 100 to 500 | 100 to 500 | 10 to 50 | 100 to 500 | –
C[C@H]1OCCCNC(=O)O[C@@H]2CC[C@@H](C2)c2cc([nH]n2)Nc2ccnc1c2 [compound 71] | 10 to 50 | 50 to 250 | 2 to 10 | – | – | – | – | – | IC50 (CDK1-CYCLIN B; Table 15): 50 to 100 nM; IC50 (CDK4-CYCLIN D1; Table 15): 100 to 500 nM; IC50 (CDK9-CYCLIN T1; Table 15): 100 to 500 nM; IC50 (CDK2-CYCLIN E1; Table 15): ≤ 10 nM; IC50 (CDK6-CYCLIN D3; Table 15): 100 to 500 nM
O=C1NCCCCOc2cncc(c2)Nc2cc(n[nH]2)[C@H]2CC[C@H](C2)O1 [compound 104] | 10 to 50 | > 1250 | 2 to 10 | – | – | – | – | – | IC50 (CDK1-CYCLIN B; Table 7): 10 to 50 nM; IC50 (CDK4-CYCLIN D1; Table 7): 50 to 100 nM; IC50 (CDK9-CYCLIN T1; Table 7): 100 to 500 nM; IC50 (CDK2-CYCLIN E1; Table 7): ≤ 10 nM; IC50 (CDK6-CYCLIN D3; Table 7): 10 to 50 nM
C[C@@H]1CCC2(CC2)NC(=O)O[C@@H]2CC[C@@H](C2)c2cc([nH]n2)Nc2ccnc(c2)O1 [compound 109] | 10 to 50 | 250 to 1250 | 2 to 10 | 10 to 50 | 50 to 100 | 100 to 500 | ≤ 10 | 100 to 500 | –
